The values that follow are results of earlier work, collected in US20250375365A1, “MOUTH RESCUE RINSE AND METHODS OF REGULATING BLOOD PRESSURE” (University of Florida Research Foundation, Inc., priority 2024, published 2025).

The structures appear in SMILES notation.

The conditions of series [1]: CHX rinses, healthy subjects; some studies reported.

As for `N=C(NCCCCCCNC(=N)NC(=N)Nc1ccc(Cl)cc1)NC(=N)Nc1ccc(Cl)cc1.O=C(O)[C@H](O)[C@@H](O)[C@H](O)[C@H](O)CO.O=C(O)[C@H](O)[C@@H](O)[C@H](O)[C@H](O)CO` [CHX, chlorhexidine gluconate], in series [1], the “blood pressure values versus controls” value is “higher blood pressure values”. Besides, in the series on oral microbiome (one-week CHX course), the “reduction of oral microbiome associated with oral nitrate production” value is “significantly impact the reduction of oral microbiome”. The “bacterial species associated with oral inflammation” value in the series on oral microbiome (oral antiseptic mouthwash) was “effectively reduced bacterial species”.
